# From patent publication US20250099448A1, “HETEROCYCLIC COMPOUNDS” (Hoffmann-La Roche Inc., priority 2022, published 2025)
# Target: T1, MAGL protein (Homo sapiens, UniProt Q99685)
# T1 sequence (Q99685 1-303): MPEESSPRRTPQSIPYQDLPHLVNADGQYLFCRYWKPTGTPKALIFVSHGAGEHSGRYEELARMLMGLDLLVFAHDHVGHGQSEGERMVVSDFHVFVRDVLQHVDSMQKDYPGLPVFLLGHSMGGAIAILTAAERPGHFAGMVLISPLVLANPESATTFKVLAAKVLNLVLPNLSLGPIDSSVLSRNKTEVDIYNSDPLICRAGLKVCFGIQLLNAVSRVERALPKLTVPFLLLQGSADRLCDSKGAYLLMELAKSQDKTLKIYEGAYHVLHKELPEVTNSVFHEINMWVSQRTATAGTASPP
# Experiment: 2-AG assay: MAGL inhibitory activity by hydrolysis of 2-arachidonoylglycerol to arachidonic acid, followed by mass spectrometry
# Format: biochemical
# Details: 8 μM 2-arachidonoylglycerol, 15 min preincubation, 30 min reaction at RT, RapidFire MS readout
# How it was run: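 MAGL was preincubated 15 min at RT with compound (12.5 to […], 3-fold steps) in 50 mM TRIS, 1 mM EDTA, 0.01% Tween-20, 2.5% DMSO. The reaction ran 30 min at RT with 8 μM 2-AG. Arachidonic acid was quantified by RapidFire SPE-MS/MS against a d8-arachidonic acid internal standard.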
row,SMILES,IC50 [nM]
1,CS(=O)(=O)c1ccc(CC2CC3(C2)CN(C(=O)N2CC4(CC(c5nnc(C6CC6)[nH]5)C4)C2)C3)nc1 [compound 119],6.52
2,CS(=O)(=O)c1cncc(CC2CC3(C2)CN(C(=O)N2CC4(CC(c5nnc(C6CC6)[nH]5)C4)C2)C3)c1 [compound 120],42
3,O=C(N1CC2(CC(Cc3cc(F)cc(C(F)(F)F)c3)C2)C1)N1CC2(CC(c3nnc(C4CC4)[nH]3)C2)C1 [compound 121],0.01
4,O=C(N1CC2(CC(Cc3cc(F)cc(C(F)(F)F)c3)C2)C1)N1CC2(CC(c3nnc(C4(O)CC4)[nH]3)C2)C1 [compound 122],< 0.05
5,CS(=N)(=O)c1ccc(CC2CC3(C2)CN(C(=O)N2CC4(CC(c5nnc(C6CC6)[nH]5)C4)C2)C3)cc1 (stereo not shown) [compound 123],3.98
6,CS(=N)(=O)c1cccc(CC2CC3(C2)CN(C(=O)N2CC4(CC(c5nnc(C6CC6)[nH]5)C4)C2)C3)c1 (stereo not shown) [compound 124],2.46
7,CS(=O)(=O)c1ccc(CC2CC3(C2)CN(C(=O)N2CC4(CC(c5nnc(C6CC6)[nH]5)C4)C2)C3)c(F)c1 [compound 130],0.09
8,O=C(N1CC2(CC(Oc3ccc(C(F)(F)F)nc3)C2)C1)N1CC2(CC(c3nnc(C4(O)CC4)[nH]3)C2)C1 [compound 132],5.98
9,O=C(N1CC2(CC(Oc3cncc(C(F)(F)F)n3)C2)C1)N1CC2(CC(c3nnc(C4CC4)[nH]3)C2)C1 [compound 133],1.73
10,O=C(N1CC2(CCC(Oc3ncc(C(F)(F)F)cn3)CC2)C1)N1CC2(CC(c3nnc(C4CC4)[nH]3)C2)C1 [compound 134],1.89
11,O=C(N1CC2(CC(c3nnc(C4CC4)[nH]3)C2)C1)N1CC2(C1)CN(S(=O)(=O)C13CC(C(F)(F)F)(C1)C3)C2 [compound 135],25.3
12,O=C(N1CC2(CCC(Cc3cnc(C(F)(F)F)cn3)CC2)C1)N1CC2(CC(c3nnc(C4CC4)[nH]3)C2)C1 [compound 136],0.57
13,O=C(N1CC2(CCC(Cc3cnc(C(F)(F)F)cn3)CC2)C1)N1CC2(CC(c3nnc(C4(O)CC4)[nH]3)C2)C1 [compound 137],6.79
14,O=C(N1CC2(CCC(Cc3ccc(Cl)cn3)CC2)C1)N1CC2(CC(c3nnc(C4CC4)[nH]3)C2)C1 [compound 138],0.3
15,O=C(N1CC2(CCC(Cc3ccc(Cl)cn3)CC2)C1)N1CC2(CC(c3nnc(C4(O)CC4)[nH]3)C2)C1 [compound 139],3.87
16,O=C(N1CC2(CCC(Cc3ccc(C(F)(F)F)nc3)CC2)C1)N1CC2(CC(c3nnc(C4CC4)[nH]3)C2)C1 [compound 140],0.31
17,O=C(N1CC2(CCC(Cc3ccc(C(F)(F)F)nc3)CC2)C1)N1CC2(CC(c3nnc(C4(O)CC4)[nH]3)C2)C1 [compound 141],10.6
18,O=C(N1CC2(CCC(Cc3ncc(F)cc3F)CC2)C1)N1CC2(CC(c3nnc(C4CC4)[nH]3)C2)C1 [compound 142],0.84
19,O=C(N1CC2(CCC(Cc3ncc(F)cc3F)CC2)C1)N1CC2(CC(c3nnc(C4(O)CC4)[nH]3)C2)C1 [compound 143],14.5
20,O=C(N1CC2(CCC(Cc3ccc(F)cn3)CC2)C1)N1CC2(CC(c3nnc(C4CC4)[nH]3)C2)C1 [compound 144],0.63
21,O=C(N1CC2(CCC(Cc3ccc(F)cn3)CC2)C1)N1CC2(CC(c3nnc(C4(O)CC4)[nH]3)C2)C1 [compound 145],12.6
22,O=C(N1CC2(CCC(Cc3ccc(OC(F)F)nc3)CC2)C1)N1CC2(CC(c3nnc(C4(O)CC4)[nH]3)C2)C1 [compound 146],9.79

row,SMILES,IC50 [nM]
1,O=C(N1CC2(CCC(Cc3ncc(F)cc3F)C2)C1)N1CC2(CC(c3nnc(C4CC4)[nH]3)C2)C1 (stereo not shown) [compound 147],0.29
2,CS(=O)(=O)c1ccc(CC2CCC3(C2)CN(C(=O)N2CC4(CC(c5nnc(C6CC6)[nH]5)C4)C2)C3)cc1C(F)(F)F (stereo not shown) [compound 153],0.27
3,O=C(N1CC2(CC(c3nnc(C4(O)CC4)[nH]3)C2)C1)N1CC2(CN(Cc3ccc(F)cc3F)C2)C1 [compound 157],15.8
4,NS(=O)(=O)c1ccccc1CN1CC2(C1)CN(C(=O)N1CC3(CC(c4nnc(C5CC5)[nH]4)C3)C1)C2 [compound 170],28.1
5,CNC(=O)c1ccccc1CN1CC2(C1)CN(C(=O)N1CC3(CC(c4nnc(C5CC5)[nH]4)C3)C1)C2 [compound 173],230
6,COCn1cnc(-c2ccccc2CN2CC3(C2)CN(C(=O)N2CC4(CC(c5nnc(C6CC6)[nH]5)C4)C2)C3)n1 [compound 174],40.7
7,COCn1ccnc1-c1ccccc1CN1CC2(C1)CN(C(=O)N1CC3(CC(c4nnc(C5CC5)[nH]4)C3)C1)C2 [compound 175],34.3
8,CS(=O)(=O)c1ccc(CN2CCC3(CC2)CN(C(=O)N2CC4(CC(c5nnc(C6CC6)[nH]5)C4)C2)C3)cc1 [compound 179],33.6
9,O=C(N1CC2(CCN(Cc3cccc(S(=O)(=O)C(F)(F)F)c3)CC2)C1)N1CC2(CC(c3nnc(C4CC4)[nH]3)C2)C1 [compound 180],0.91
10,CS(=O)(=O)c1cccc(CN2CCC3(CC2)CN(C(=O)N2CC4(CC(c5nnc(C6CC6)[nH]5)C4)C2)C3)c1 [compound 181],36.2
11,O=C(N1CC(NCc2cc(F)ccc2C(F)(F)F)C1)N1CC2(CC(c3nnc(C4CC4)[nH]3)C2)C1 [compound 187],70.5
12,O=C(N1CC(NCc2cc(C(F)(F)F)ccc2Cl)C1)N1CC2(CC(c3nnc(C4CC4)[nH]3)C2)C1 [compound 188],20.7
13,O=C(N1CC(NCc2ccc(OC(F)(F)F)cc2F)C1)N1CC2(CC(c3nnc(C4CC4)[nH]3)C2)C1 [compound 189],38.6
14,O=C(N1CC(NCc2ccc(C(F)(F)F)cc2Cl)C1)N1CC2(CC(c3nnc(C4CC4)[nH]3)C2)C1 [compound 190],12.6
15,O=C(N1CC(NCc2ccc(OC(F)(F)F)cc2)C1)N1CC2(CC(c3nnc(C4CC4)[nH]3)C2)C1 [compound 191],45.6
16,O=C(N1CC(NCc2ccc(C(F)(F)F)cc2F)C1)N1CC2(CC(c3nnc(C4CC4)[nH]3)C2)C1 [compound 192],23.2
17,O=C(N1CC(NCc2ccc(C(F)(F)F)c(F)c2)C1)N1CC2(CC(c3nnc(C4CC4)[nH]3)C2)C1 [compound 193],45.5
18,O=C(N1CC(NCc2cc(Cl)cc(C(F)(F)F)c2)C1)N1CC2(CC(c3nnc(C4CC4)[nH]3)C2)C1 [compound 194],18.4
19,O=C(N1CC(NCc2cc(C(F)(F)F)ccc2F)C1)N1CC2(CC(c3nnc(C4CC4)[nH]3)C2)C1 [compound 195],130
20,O=C(N1CC(NCc2ccc(F)cc2C(F)(F)F)C1)N1CC2(CC(c3nnc(C4CC4)[nH]3)C2)C1 [compound 196],111
21,COc1cc(C(F)(F)F)ccc1CNC1CN(C(=O)N2CC3(CC(c4nnc(C5CC5)[nH]4)C3)C2)C1 [compound 197],15.6

# Results, then the compound that gave them:
row,IC50 [nM],SMILES
1,2.79,O=C(N1CC2(CC(Oc3ccc(C(F)(F)F)nc3)C2)C1)N1CC2(CC(c3nnc(C4CC4)[nH]3)C2)C1 [compound 131]
2,0.43,O=C(N1CC2(CCC(Cc3ccc(C(F)(F)F)nc3)C2)C1)N1CC2(CC(c3nnc(C4CC4)[nH]3)C2)C1 (stereo not shown) [compound 152]
3,4.08,O=C(N1CC2(CC(c3nnc(C4CC4)[nH]3)C2)C1)N1CC2(CN(Cc3ccc(F)cc3F)C2)C1 [compound 156]
4,6.08,O=C(N1CC2(CC(c3nnc(C4CC4)[nH]3)C2)C1)N1CC2(CN(Cc3cc(F)cc(F)c3)C2)C1 [compound 159]
5,61.3,O=C(N1CC2(CC(c3nnc(C4CC4)[nH]3)C2)C1)N1CC2(CN(Cc3ccc(C(F)(F)F)nn3)C2)C1 [compound 160]
6,78.8,O=C(N1CC2(CC(c3nnc(C4CC4)[nH]3)C2)C1)N1CC2(CN(Cc3ncc(C(F)(F)F)cn3)C2)C1 [compound 161]
7,32.7,O=C(N1CC2(CC(c3nnc(C4CC4)[nH]3)C2)C1)N1CC2(CN(Cc3cnc(C(F)(F)F)nc3)C2)C1 [compound 162]
8,4.11,O=C(N1CC2(CC(c3nnc(C4CC4)[nH]3)C2)C1)N1CC2(CN(Cc3ccc(C(F)(F)F)cn3)C2)C1 [compound 163]
9,18.3,O=C(N1CC2(CC(c3nnc(C4CC4)[nH]3)C2)C1)N1CC2(CN(Cc3cnc(C(F)(F)F)cn3)C2)C1 [compound 164]
10,30.9,O=C(N1CC2(CC(c3nnc(C4CC4)[nH]3)C2)C1)N1CC2(CN(Cc3ncc(F)cc3F)C2)C1 [compound 165]
11,0.62,O=C(N1CC2(CC(c3nnc(C4CC4)[nH]3)C2)C1)N1CC2(CN(Cc3ccc(F)cc3C(F)(F)F)C2)C1 [compound 169]
12,8.71,O=C(N1CC2(CCN(Cc3ccc(C(F)(F)F)nc3)CC2)C1)N1CC2(CC(c3nnc(C4CC4)[nH]3)C2)C1 [compound 176]
13,0.38,O=C(N1CC2(CCN(Cc3ccc(C(F)(F)F)cc3F)CC2)C1)N1CC2(CC(c3nnc(C4CC4)[nH]3)C2)C1 [compound 177]
14,1.8,O=C(N1CC2(CCN(Cc3ccc(C(F)(F)F)cn3)CC2)C1)N1CC2(CC(c3nnc(C4CC4)[nH]3)C2)C1 [compound 178]
15,5.91,O=C(N1CC2(CC(c3nnc(C4CC4)[nH]3)C2)C1)N1CC2(CCN(Cc3ccc(C(F)(F)F)cn3)C2)C1 [compound 182]
16,31.3,O=C(N1CC2(CC(c3nnc(C4CC4)[nH]3)C2)C1)N1CC2(CCN(Cc3ccc(C(F)(F)F)nn3)C2)C1 [compound 183]
17,11.7,O=C(N1CC2(CC(c3nnc(C4CC4)[nH]3)C2)C1)N1CC2(CCN(Cc3cnc(C(F)(F)F)cn3)C2)C1 [compound 184]
18,1.65,O=C(N1CC2(CC(NCc3ccc(C(F)(F)F)cc3F)C2)C1)N1CC2(CC(c3nnc(C4CC4)[nH]3)C2)C1 [compound 185]
